Measurements published in article PMC11915509, “Small molecule inhibitors of hnRNPA2B1–RNA interactions reveal a predictable sorting of RNA subsets into extracellular vesicles” (Nucleic Acids Research, 2025).
Values joined by “and” are separate entries in the source; they are usually repeats but may differ in a detail not shown here. Equal values may be shown once. Where a name gives a salt, the structure may show the parent alone. Blank lines part the entries; values can stand above or below the molecule they belong to.

Tests used:
[1] = molecular target: T1, hnRNPA2B1-EXOmotif interaction (Homo sapiens, UniProt P22626); experiment: AlphaScreen dose-response, inhibition of hnRNPA2B1-EXOmotif RNA interaction; type: binding; conditions: AlphaScreen dose-response with RNA EXOmotif, one site fitting
T1 construct: purified a human full-length, GST-tagged protein expressed in Escherichia coli cells; made in house; host or cells: E. coli BL21 (DE3)
T1 sequence (P22626 whole entry): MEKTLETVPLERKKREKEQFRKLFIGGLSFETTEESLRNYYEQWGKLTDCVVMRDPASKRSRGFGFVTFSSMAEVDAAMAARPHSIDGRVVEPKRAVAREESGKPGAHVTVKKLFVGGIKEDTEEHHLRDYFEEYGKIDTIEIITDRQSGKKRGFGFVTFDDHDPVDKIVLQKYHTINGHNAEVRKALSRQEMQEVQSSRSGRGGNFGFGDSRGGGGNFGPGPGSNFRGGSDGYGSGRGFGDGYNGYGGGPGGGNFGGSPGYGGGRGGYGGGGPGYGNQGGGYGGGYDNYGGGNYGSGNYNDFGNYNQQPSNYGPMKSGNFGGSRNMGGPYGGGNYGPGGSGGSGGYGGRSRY
Procedure: The assays were performed in OptiPlate-384-well plates (PerkinElmer, 6007299) in 20 μl final volume. The ligands were diluted in AlphaBuffer [25 mM HEPES, pH 7.4, 100 mM NaCl, 0.01% bovine serum albumin (BSA)] and tested using AlphaScreen GST Detection Kit (PerkinElmer, 6760603C). […] For the reactions, 4 μl of the RNA probes were first added to the plate, then 16 μl of a mix containing all the other components was added, and the plate was incubated at room temperature for 1 h in the dark.
The high-throughput drug screening was performed in a total volume of 20 μl using 17 nM of RNA EXO motif (chosen below the hooking point), 30 nM GST-hnRNPA2B1, and 250 nM of compounds belonging to mass spectrometry (MS) Spectrum Collection library (MicroSource, 2000 compounds). Compounds were dispensed into white 384-well Optiplates (PerkinElmer) using Echo 650 acoustic dispenser (Beckman Coulter) followed by the addition of protein in Alpha Buffer using the EL460 dispenser (BioTek). After 15 min of incubation, RNA probes were added by Echo 650 acoustic dispenser, while Donor and Acceptor beads from the GST detection kit (Perkin Elmer) were dispensed by EL460 instrument. Following 60 min of incubation, Alpha signal was detected using Enspire plate reader instrument (PerkinElmer). The raw Alpha counts were normalized to Dimethyl sulfoxide (DMSO)-treated controls within every plate.

EXO-motif RNA = experiment: Fluorescence indicator displacement (FID) melting curve, EXO-motif RNA; type: binding; conditions: 5 μM RNA, 25 μM compound, Midori green
Procedure: (§1) Five μM RNA EXO motif were mixed with 25 μM compounds in AlphaBuffer (25 mM HEPES, pH 7.4, 100 mM NaCl, 0.01% BSA) to a final volume of 20 μl. Absorbance spectrum (200–530 nm) was measured using Tecan Spark® microplate reader with a NanoQuant plate at room temperature. In fluorescence indicator displacement (FID), a 2× final concentration of Midori green advanced (Resnova) was added to the samples and the melting curve measured using Bio-Rad CFX96™ System from 30°C to 90°C.

EXO-motif RNA probe = experiment: Absorbance scan of compounds mixed with EXO-motif RNA; type: binding; conditions: EXO-motif RNA probe, 1:5 micromolar ratio
Procedure: as §1

[2] = test system: hnRNPA2B1 and TDP43 bound RNA (miR-221, miR-1910); experiment: RNA immunoprecipitation (RIP) on cytoplasmic lysates of treated NSC34 cells; type: cell-based, mouse; conditions: 6 h treatment, anti-hnRNPA2B1 and anti-TDP43 RIP
Procedure: Flow cytometry of a fraction of RNA immunoprecipitation (RIP) experiments, consisting of RNA/protein-antibody-bead complexes, was performed on the same instrument using a sequential gating with Streptavidin beads alone ± antibodies (this signal corresponded to background). Pyronin Y (PY) was used at a final concentration of 50 ng/ml and the PY-positive events recorded for 1 min.
Approximately 2 × 10^6 cells were used for each RIP experiment, performed as already described, without cross-linking steps and using 0.5 μg/ml of antibodies. Beads-precipitated samples were divided for immunoblotting or TRIzol-based RNA isolation. Densitometric analysis obtained using Image J software (v.1.54). miRNA TaqMan probes were bought from Thermo Fisher with the following codes: miR-221 (477 981), miR-1910 (479 581), and miR-126 (4 427 975).

NSC34 cells = experiment: Nanodrop quantification of total intracellular RNA after treatment; type: cell-based, mouse; conditions: 6 h treatment
Procedure: RNA from cells was extracted using TRI Reagent® ([…], Sigma) following the manufacturer's instructions. Thermo Fisher Nanodrop 2000 Spectrophotometer was used to assess the purity and quantity of extracted RNA. RNA from EVs was extracted using Single Cell RNA Isolation Kit (51800, Norgen) following the manufacturer's protocol. The elution was in 10-20 μl of RNase-free water and the RNA profiling and quantification was assessed by Agilent 2100 Bioanalyzer and RNA 6000 Pico Kit (5067-1513). Cell- and EV-RNAs were also analysed with DNF-472 HS RNA (15 nt) Kit (Agilent Technologies, Santa Clara, CA), according to the manufacturer. Briefly, 2 μl of RNA samples concentrated within a range of 50-5000 pg/μl and RNA Ladder were added to Diluent Marker, denatured at 70°C for 2 min and loaded. Results were analysed with Agilent ProSize data analysis software, that allows the analysis of RNA size, concentration and quality. Through a Peak Analysis it was possible to access the concentration of each peak recognized by the software. Half a nanogram of extracted RNA from cells and EVs was used as input for complementary DNA (cDNA) synthesis. cDNA was produced using TaqManTM Advanced miRNA cDNA Synthesis Kit (Applied BiosystemsTM, A28007) following manufacturers' instructions and used for droplet digital polymerase chain reaction (PCR) experiments.

[3] = test system: EV miR-221 from NSC34 cells; experiment: ddPCR of miR-221-3p in NSC34-derived EV-RNA; type: cell-based, mouse; conditions: NSC34-derived EVs, 6 h treatment
Procedure: EVs were isolated from HEK293T, NSC34, and smNPC-derived motor neurons using nickel-based isolation (NBI) or differential ultracentrifugation (UC). NBI protocol was performed as already described. Briefly, after a first centrifugation step at 2800 × g for 10 min, nickel beads were incubated for 30 min with serum-free media collected from cells in a ratio of 25 μl of beads per ml of medium. After a 2 min centrifugation at 600 g, particles were eluted from the beads by adding 1× elution buffer made of Solution A [16 mM ethylenediaminetetraacetic acid (EDTA), UltraPure, pH 8.0, Thermo Fisher] and Solution B (10 mM NaCl, 225 μM citric acid, Sigma–Aldrich) diluted five times in phosphate-buffered saline (PBS). After 15 min incubation at 28°C in a thermoshaker, the EVs were retrieved by 1-min centrifugation at 1800 × g and subjected to the following characterization. NBI was used to recover polydisperse EVs and include the RNA contribution from these for reverse proteomics experiments. The EV-RNA for reverse proteomics was pooled from three consecutive EV isolation procedures performed on a total of 30 T75 flasks (10 flasks each) of NSC34 cells grown until 80% confluence under standard conditions before washing with PBS and incubating with serum-free medium with glutamine and antibiotics. Differential UC was applied as an alternative EV isolation protocol to confirm the detection of hnRNPA2B1 protein. UC was performed by a SW 32 Ti swinging bucket rotor in an Optima XPN-100 ultracentrifuge (Beckman Coulter, Brea, CA, USA). The cell-conditioned serum-free media, after the first centrifugation step at 2800 × g for 10 min, was put in open-top Ultra-Clear centrifuge tubes (Beckman Coulter-344058) and subjected to 100 000 × g (100 K) UC for 70 min at 4°C under vacuum, with or without an additional step at 10 000 × g (10 K) to first sediment larger particles. Then the supernatant was removed, and the pellet was resuspended in 0.22 μm filtered PBS. Differential UC alone, consisting of 2800 × g for 10 min and 100 000 × g for 70 min, was applied for experiments reported in Fig. 5. […]
RNA from cells was extracted using TRI Reagent® (T9424, Sigma) following the manufacturer’s instructions. Thermo Fisher Nanodrop 2000 Spectrophotometer was used to assess the purity and quantity of extracted RNA. […] The elution was in 10–20 μl of RNase-free water and the RNA profiling and quantification was assessed by Agilent 2100 Bioanalyzer and RNA 6000 Pico Kit (5067-1513). Cell- and EV-RNAs were also analysed with DNF-472 HS RNA (15 nt) Kit (Agilent Technologies, Santa Clara, CA), according to the manufacturer. […] Results were analysed with Agilent ProSize data analysis software, that allows the analysis of RNA size, concentration and quality. […]

[4] = test system: hnRNPA2B1 protein association with purine-rich RNA probe; experiment: RNA pull-down with biotinylated EXOmotif probe after cell treatment, immunoblotting; type: cell-based, mouse; conditions: NSC34 cells, 6 h, 5 μM compound
Procedure: To prepare native protein lysates, 1–3 × 10^6 NSC34 cells were lysed in buffer R-Lysis [25 mM HEPES, pH 7.5, 100 mM NaCl, 1× protease inhibitor (Thermo Fisher, 78429)] and subjected to a water-bath sonication (35–40 amplitude, 6–7 cycles of 7 s on and 45 s off). After a centrifugation at 14 000 rpm for 20 min at 4°C, the supernatant was collected and 200 μg were incubated with 5 μl of buffer equilibrated Dynabeads^TM M-280 Streptavidin (Invitrogen, 11205D) for 15 min at 4°C in rotation to perform a pre-clearing step. After the magnetic separation, the pre-cleared lysate was incubated with 10 μl of 100 μM RNA biotinylated probes (or 400 ng of biotinylated EV-RNA) and incubated for 1 h at 4°C in rotation. Then, 5 μl/sample of beads were added and the sample were put again in rotation for 20 min at 4°C. […]
Cells were lysed in lysis buffer [50 mM Tris–HCl, pH 7.4, 150 mM NaCl, 1 mM EDTA, 0.25% NP-40, 0.1% Triton X-100, 0.1% sodium dodecyl sulphate, 1× protease inhibitor (Thermo Fisher, 78429)]. […] The signal was measured with Amersham ECL HRP-Conjugated Antibodies (Cytiva) using BioRad Chemidoc XRS+.

GST-hnRNPA2B1 [5] = molecular target: T2, GST-hnRNPA2B1 (Homo sapiens, UniProt P22626 1-353); experiment: AlphaScreen saturation binding; near-background counts; AlphaScreen: 25 mM HEPES pH 7.4, 100 mM NaCl, 0.01% BSA, RT 1 h; REMSA: 20 mM HEPES pH 7.5, 50 mM KCl, 0.5 ug BSA, 0.25% glycerol, RT; pull-down: 25 mM HEPES pH 7.5, 100 mM NaCl, 4 C; conditions: protein: recombinant; tags: N-terminal GST (pGEX-6P-1); label: 5'-biotin-TEG; single strand
T2 sequence (P22626 whole entry): as above

GST-hnRNPA2B1 [6] = molecular target: T2, GST-hnRNPA2B1; experiment: AlphaScreen saturation binding; AlphaScreen: 25 mM HEPES pH 7.4, 100 mM NaCl, 0.01% BSA, RT 1 h; REMSA: 20 mM HEPES pH 7.5, 50 mM KCl, 0.5 ug BSA, 0.25% glycerol, RT; pull-down: 25 mM HEPES pH 7.5, 100 mM NaCl, 4 C; conditions: protein: recombinant; tags: N-terminal GST (pGEX-6P-1); label: 5'-biotin-TEG; single strand; weak predicted secondary structure (-0.5 kcal/mol)
GST-hnRNPA2B1 [7] = molecular target: T2, GST-hnRNPA2B1; experiment: AlphaScreen kinetics (koff/kon); 30 nM protein; kon 523664 M-1 min-1, koff 0.02091 min-1; AlphaScreen: 25 mM HEPES pH 7.4, 100 mM NaCl, 0.01% BSA, RT 1 h; REMSA: 20 mM HEPES pH 7.5, 50 mM KCl, 0.5 ug BSA, 0.25% glycerol, RT; pull-down: 25 mM HEPES pH 7.5, 100 mM NaCl, 4 C; conditions: protein: recombinant; tags: N-terminal GST (pGEX-6P-1); label: 5'-biotin-TEG; single strand; weak predicted secondary structure (-0.5 kcal/mol)

IC50 [1]: ~250 nM and 250 nM
Molecule: O=C(O)C1=CC(=C(c2ccc(O)c(C(=O)O)c2)c2ccc(O)c(C(=O)O)c2)C=CC1=O [ATA, aurin tricarboxylic Acid, reference compound]

thermal shift of the EXO-motif RNA (EXO-motif RNA): 6.3 °C
Molecule: neomycin [reference compound]

Molecule: CC(C)=CC1C(C(=O)OCc2cccc(Oc3ccccc3)c2)C1(C)C (centres unmarked) [P, phenotrin]
IC50 [1]: ~120 nM and 122 nM
spectroscopic changes at 230 nm (EXO-motif RNA probe): main spectroscopic changes
percentage of bound targets (miR-221, miR-1910) [2]: significantly reduced
accumulation of intracellular RNAs (NSC34 cells): significantly higher
vesicular miR-221, copy number normalized on Y3 RNA and DMSO [3]: vesicular depletion

Molecule: O=C(O[C@@H]1Cc2c(O)cc(O)cc2O[C@@H]1c1cc(O)c(=O)c2c(O)c(O)cc([C@H]3Oc4cc(O)cc(O)c4C[C@H]3OC(=O)c3cc(O)c(O)c(O)c3)c2c1)c1cc(O)c(O)c(O)c1 [TD, theaflavin digallate]
vesicular miR-221, copy number normalized on Y3 RNA and DMSO [3]: vesicular depletion

IC50 [1]: 100 nM
Molecule: C=C1c2cccc(O)c2C(=O)C2=C(O)[C@]3(O)C(=O)C(C(N)=O)=C(O)[C@@H](N(C)C)[C@@H]3[C@@H](O)[C@H]12 [MH, methacycline hydrochloride, reference compound]
association of hnRNPA2B1 protein with exogenous purine-rich RNA probe [4]: most effective
vesicular miR-221, copy number normalized on Y3 RNA and DMSO [3]: vesicular depletion

Molecule: AGGACUGC (ssRNA) [RNA 276]
binding result (GST-hnRNPA2B1 [5]): no binding

Molecule: GGGGAGGUUAGGGAGGAGGGGGGUAGGCGCC (ssRNA) [EXOmotif RNA (biotin)]
Kd (GST-hnRNPA2B1 [6]): 3.4 ± 1.6 nM
Kd (GST-hnRNPA2B1 [7]): 40 ± 3 nM
